# Source: patent publication US20230295088A1, “INSULIN SENSITIZERS FOR THE TREATMENT OF DIABETES MELLITUS” (University of Iowa Research Foundation, priority 2020, published 2023)
# “Also recorded” adds a separate entry of the source.
# Legend:
# Unc119 KO HBG4 cells = test: 3H-Deoxy-D-Glucose uptake in Unc119 KO HBG4 cells; assay type: cell-based, mouse
# Description: (§1) Unc119 and Unc119b are important for the insulin sensitizing effect of C59. After identifying Unc119 proteins as molecular targets for C59, it was tested whether those proteins were responsible for the insulin sensitizing activity of C59. To this end Unc119 and Unc119b KO HBG4 cells were generated using CRISPR/Cas9 technology. For each of those cell lines two gRNA surrounding the start codon were used, thus resulting in a deletion of a fragment of the Unc119 genes that includes the ATG. Deletion of Unc119 and Unc119b in clonal cell lines were screened and verified by PCR (FIG. 4E). The effect of C59 on insulin-stimulated. […] To further test this finding, 3H-Deoxy-D-Glucose uptake in WT, Unc119 KO and Unc119b KO HBG4 cells treated with vehicle, insulin, C59 alone and C59 with insulin was measured.
# Unc119b KO HBG4 cells = test: 3H-Deoxy-D-Glucose uptake in Unc119b KO HBG4 cells; assay type: cell-based, mouse
# Description: as §1
# [1] = system: diet-induced obese (DIO) mice; test: Glucose tolerance, fasting glucose and insulin in diet-induced obese (DIO) insulin-resistant mice; assay type: in vivo, mouse; conditions: DIO mice, C59 treatment
# Description: To test whether C3 improves glucose handling, WT mice were made insulin-resistant by feeding them a high fat diet (HFD) for a period of 10 weeks. After 10 weeks, mice were injected with vehicle. C3 (20 mg/kg), or the TZD rosiglitazone (20 mg/kg) for 2 weeks while remaining on the HFD. […] To further test the in vivo efficacy of C3, a glucose tolerance test (GTT) was perfromed.
# To test whether C3 improves glucose handling, lean mice were injected with vehicle or C3 30 minutes before performing a glucose tolerance test. […] To further determine if C3 can reverse glucose intolerance, WT mice were made insulin-resistant by feeding them a high fat diet (HFD) for a period of 10 weeks. Diet induced obese (DIO) mice were then injected with vehicle or C3 for 2 weeks while remaining on HFD.
# [2] = system: GLUT4 translocation in C2C12 myoblast cell line stably expressing HiBiT-GLUT4 (HBG4); test: HiBiT (NanoBit) luminescence GLUT4 translocation assay in HBG4 C2C12 cells; assay type: cell-based, mouse
# Excerpt: An assay was used to identify potentiators of insulin-stimulated GLUT4 translocation. In one embodiment, the assay employs Nanobit technology. This technology is based on the recombination of two complementary fragments, HiBiT and LgBiT, of the Nanoluc luciferase. HiBit was fused to an extracellular region of GLUT4 to allow for the rapid quantitation of its the surface density in live cells by adding the reconibinantly produced complementary fragment LgBiT and the luciferase substrate. Since LgBiT is not membrane permeant, only proteins at the plasma membrane are quantified. To measure GLUT4 translocation, a stable C2C12 myoblast cell line was prepared by expressing a HiBiT-tagged mouse GLUT4. […] The Chembridge Diverset library of 49,600 compounds was screened and 1264 hits were identified. A subset of those hits were selected and retested in the presence and absence of insulin.
# Development of a HTS assay for real-time measurement of GLUT4 translocation. To measure GLUT4 translocation in a homogenous and HIS amenable manner, NanoBit technology was used. This technology relies on the rapid recombination of 2 fragments of the Nanoluc luciferase (HiBit and LgBiT) with high affinity for each other. Fragments have no enzymatic activity on their own but generate a bright luminescent signal when recombined. A C2C12 myoblast cell line was prepared that stably expressed HiBiT-GLUT4 (HBG4), in which the small 11 amino acid HiBiT fragment was inserted into the first extracellular loop of GLUT4. A C-terminal mCherry was also added for microscopic detection. The C2C12 line was chosen as an in vitro model because it is derived from skeletal myoblasts and translocate GLUT4 in response to insulin. Detection of plasma membrane density of HBG4 is achieved by adding recombinant LgBit and substrate to live cells. The assay can be conducted as an endpoint where cells are incubated with insulin before measuring luminescence or as a kinetic assay by adding LgBiT and substrate at the beginning of the experiment and monitor real-time insulin-stimulated GLUT4 translocation.
# An assay to measure GLUT4 translocation in a homogenous and HIS amenable manner using NanoBit technology was developed. This technology relies on the rapid recombination of 2 fragments of the Nanoiuc luciferase (HiBit and LgBiT) with high affinity for each other. Fragments have no enzymatic activity on their own but generate a bright luminescent signal when recombined. A C2C12 myoblast cell line stably expressing HiBiT-GLUT4 (HBG4), in which the small 11 amino acid HiBiT fragment was inserted into the first extracellular loop of GLUT4 was prepared. A C-terminal mCherry was also added for microscopic detection (FIGS. 1A and B). The C2C12 line was chosen as an in-vitro model because it is derived from skeletal myoblasts and translocates GLUT4 in response to insulin. Detection of plasma membrane density of HBG4 is achieved by adding recombinant LgBit and substrate to live cells (FIG. 1C). The assay can be conducted as a kinetic assay by adding LgBiT and substrate at the beginning of the experiment and monitoring real-time insulin-stimulated GLUT4 translocation (FIGS. 1D and E).
# WT HBG4 cells = test: 3H-Deoxy-D-Glucose uptake in WT HBG4 cells; assay type: cell-based, mouse
# Description: as §1
# [3] = Solubility in aqueous solution; assay type: physicochemical; conditions: compared with C3
# [4] = system: GLUT4 expressing tissues of DIO mice; test: PET/CT measurement of 18F-FDG uptake in DIO mice; assay type: in vivo, mouse; conditions: HFD supplemented with C59 for two weeks
# Description: C59 improves glucose uptake in storage tissues of DIO mice. Since insulin resistance results in a failure to transport glucose from the circulation to tissues that can use it as a source of energy or store it, it was tested whether treating insulin resistant DIO mice with C59 results in an increase in glucose uptake in GLUT4 expressing tissues. For this, insulin resistant DIO mice (fed a HFD for 10 weeks) were fed HFD or HFD supplemented with C59 for two weeks before injection of ^18F-FDG and uptake of the radioactive glucose tracer was measured by PET/CT.
smiles,measurement,setting,value
O=C(Nc1ccc(Cl)c(Cl)c1)C12CC3CC(CC(C3)C1)C2 [Compound C59],"3H-Deoxy-D-Glucose uptake, compound alone",Unc119 KO HBG4 cells; no insulin,did not stimulate
same,insulin stimulated 3H-Deoxy-D-Glucose uptake,Unc119 KO HBG4 cells; with insulin,failed to do so
same,"3H-Deoxy-D-Glucose uptake, compound alone",Unc119b KO HBG4 cells; no insulin,did not stimulate
same,insulin stimulated 3H-Deoxy-D-Glucose uptake,Unc119b KO HBG4 cells; with insulin,failed to do so
same,glucose handling in DIO mice,[1],drastically improves
same,EC50,"[2]; Mus musculus, HBG4 C2C12 cells, with insulin, read-out: potency (enhancement of insulin effect on GLUT4 translocation)",2.5 µM
same,efficacy compared with C3,[2]; enhancement of insulin effect on GLUT4 translocation,higher; also recorded: improved efficacy
same,insulin-stimulated GLUT4 translocation,"[2]; in the presence of insulin, WT HBG4 C2C12 cells",enhanced; also recorded: retained activity; also recorded: increased
same,"3H-Deoxy-D-Glucose uptake, compound alone",WT HBG4 cells; no insulin,did not stimulate
same,insulin stimulated 3H-Deoxy-D-Glucose uptake,WT HBG4 cells; with insulin,significantly increased
same,solubility in aqueous solution,[3],improved solubility
same,18F-FDG uptake in BAT,[4],significantly increased
same,18F-FDG uptake in WAT,[4],significantly increased
same,18F-FDG uptake in heart tissues,[4],significantly increased
same,18F-FDG uptake in skeletal muscles,[4],significantly increased
